Laboratory results published in paper PMC6273209, “Evaluation of the Enantiomer Specific Biokinetics and Radiation Doses of [^18F]Fluspidine—A New Tracer in Clinical Translation for Imaging of σ1 Receptors” (Molecules, 2016).
Where “and” joins values, the source holds several entries; their conditions need not be identical. Equal values may be shown once.

Test: Human dosimetry estimation from small animal PET/MRI (imaging method)
Assay type: in vivo, CD-1 mice
Settings: for OD Adrenals / OD Brain / OD Breasts / OD Gallbladder Wall / OD Heart Wall / OD Kidneys / OD LLI Wall / OD Liver / OD Lungs / OD Muscle / OD Osteogenic Cells / OD Ovaries / OD Pancreas / OD Red Marrow / OD Skin / OD Small Intestine / OD Spleen / OD Stomach Wall / OD Testes / OD Thymus / OD Thyroid / OD Total Body / OD ULI Wall / OD Urinary Bladder Wall / OD Uterus / ED Contr. Adrenals / ED Contr. Brain / ED Contr. Breasts / ED Contr. Gallbladder Wall / ED Contr. Heart Wall / ED Contr. Kidneys / ED Contr. LLI Wall / ED Contr. Liver / ED Contr. Lungs / ED Contr. Muscle / ED Contr. Osteogenic Cells / ED Contr. Ovaries / ED Contr. Pancreas / ED Contr. Red Marrow / ED Contr. Skin / ED Contr. Small Intestine / ED Contr. Spleen / ED Contr. Stomach Wall / ED Contr. Testes / ED Contr. Thymus / ED Contr. Thyroid / ED Contr. Total Body / ED Contr. ULI Wall / ED Contr. Urinary Bladder Wall / ED Contr. Uterus: mouse PET/MRI; for OD Adrenals / OD Brain / OD Breasts / OD Gallbladder Wall / OD Heart Wall / OD Kidneys / OD LLI Wall / OD Liver / OD Lungs / OD Muscle / OD Osteogenic Cells / OD Ovaries / OD Pancreas / OD Red Marrow / OD Skin / OD Small Intestine / OD Spleen / OD Stomach Wall / OD Testes / OD Thymus / OD Thyroid / OD Total Body / OD ULI Wall / OD Urinary Bladder Wall / OD Uterus: scaled to human adult male model; for ED Contr. Adrenals / ED Contr. Brain / ED Contr. Breasts / ED Contr. Gallbladder Wall / ED Contr. Heart Wall / ED Contr. Kidneys / ED Contr. LLI Wall / ED Contr. Liver / ED Contr. Lungs / ED Contr. Muscle / ED Contr. Osteogenic Cells / ED Contr. Ovaries / ED Contr. Pancreas / ED Contr. Red Marrow / ED Contr. Skin / ED Contr. Small Intestine / ED Contr. Spleen / ED Contr. Stomach Wall / ED Contr. Testes / ED Contr. Thymus / ED Contr. Thyroid / ED Contr. Total Body / ED Contr. ULI Wall / ED Contr. Urinary Bladder Wall / ED Contr. Uterus / ED: ICRP 103 weighting; for ED ICRP 60 / ED: mouse, imaging (PET/MRI); for ED ICRP 60: ICRP 60 weighting
Method: The animals were initially anesthetized with 4% of isoflurane and were positioned prone in a small-animal PET/MRI system (nanoScan® PET/MRI, MEDISO, Budapest, Hungary) equipped with respiratory monitoring, heated mouse bed (37 °C), and inhalation anesthesia (1.8% isoflurane in a 60% oxygen/40% air gas mixture at 250 mL/min airflow; Anaesthesia Unit U-410, agntho’s, Lidingö, Sweden; Gas blender 100 series, MCQ Instruments, Rome, Italy). Prior to the PET scan, a scout image MR sequence was done to outline the animal dimensions. Female CD-1 mice (age: 12 weeks, weight: 30.9 ± 1.3 g) were injected via the tail vein with (S)-(−)-[^18F]fluspidine (13.2 ± 3.0 MBq; n = 3) or (R)-(+)-[^18F]fluspidine (12.6 ± 1.4 MBq; n = 3) in a volume of 200 μL saline. The injected dose was calculated by the difference of the radioactivity in the syringe before and after the injection. A dynamic whole body animal PET scan of 105 min length (Figure 1) was started simultaneously. This scanning time was chosen to represent the protocol of the human study (after time extrapolation according to Equation (2)) based on a priori biokinetic information from the ex vivo investigation. Following the PET scan, a 20 min T1-weighted whole body MR scan (gradient echo sequence, TR = 20 ms; TE = 3.2 ms) was performed for anatomical orientation after co-registration and attenuation correction at the reconstruction step.
The PET images were iteratively (ordered-subsets expectation maximization, OSEM) reconstructed (preclinical: 4 iterations, 6 subsets; clinical: 4 iterations, 8 subsets) and corrected for decay, randoms, scatter, and dead time, μ-maps for attenuation correction of PET-emission data were derived from the CT or MR [49] structural data, respectively. The PET data were re-binned into 10 time frames (preclinical: 4 × 5 min, 1 × 10 min, and 5 × 15 min; clinical: 4 × 12 min, 3 × 16 min, 1 × 32 min, 1 × 40 min, and 1 × 48 min), and the reconstructed PET/MRI and PET/CT images were co-registered manually with ROVER (ABX, advanced chemical compounds, Radeberg, Germany, version 2.1.17). Quantitative evaluation was performed by drawing volumes of interest (VOI) for brain, gallbladder, large intestine, small intestine, stomach, heart, kidneys, liver, lungs, pancreas, red marrow (backbone, pelvis, sternum), spleen, thyroid, testes, and urinary bladder (Figure S4). The PET derived biokinetic data is expressed as percentage of injected activity (dose) per cubic centimeter (%ID/cm^3).
For human dosimetry estimation from animal biodistribution and PET/MR imaging, animal organ masses and time scale was extrapolated to human magnitudes. At first, the organ-specific animal %ID data were extrapolated to the human scale with the equation (1) %ID/organhuman=%ID/gmouse · morganhuman · mmouse/mhuman with the fraction of the injected activity in the corresponding human organ = %ID/organhuman , the fraction of injected activity per gram animal organ tissue = %ID/gmouse and morganhuman the mass of the corresponding human organ. At second, a time scale extrapolation is needed due to differences in the metabolic rate using the equation (2) thuman=tmouse{mhuman/mmouse}^0.25 including the human time scale = thuman , the animal time scale = tmouse and the ratio of animal and human body weights = mmouse/mhuman .
The human dosimetry estimation was performed with the data extrapolated as well as the genuine human data using OLINDA/EXM software. The time-activity curves were estimated by exponential fitting and calculating the time integral, which equals the number of disintegrations (NODs) per organ during the observation period normalized to 1 Becquerel administered activity dose. […] Therefore, activity data of the urinary bladder was derived from the image for each time point. In contrast, for humans the activity concentration data of the urinary bladder was obtained in a more direct approach. […]

FCC[C@@H]1OC2(CCN(Cc3ccccc3)CC2)c2ccccc21 [(S)-(−)-[^18F]fluspidine]
OD Adrenals: 10.50 μSv/MBq | OD Brain: 10.10 μSv/MBq | OD Breasts: 5.93 μSv/MBq | OD Gallbladder Wall: 25.60 μSv/MBq | OD Heart Wall: 9.85 μSv/MBq | OD Kidneys: 37.60 μSv/MBq | OD LLI Wall: 14.00 μSv/MBq | OD Liver: 25.00 μSv/MBq | OD Lungs: 10.40 μSv/MBq | OD Muscle: 7.57 μSv/MBq | OD Osteogenic Cells: 12.70 μSv/MBq | OD Ovaries: 11.50 μSv/MBq | OD Pancreas: 10.90 μSv/MBq | OD Red Marrow: 10.80 μSv/MBq | OD Skin: 5.61 μSv/MBq | OD Small Intestine: 23.10 μSv/MBq | OD Spleen: 26.10 μSv/MBq | OD Stomach Wall: 10.50 μSv/MBq | OD Testes: 7.46 μSv/MBq | OD Thymus: 7.19 μSv/MBq | OD Thyroid: 7.61 μSv/MBq | OD Total Body: 8.68 μSv/MBq | OD ULI Wall: 20.50 μSv/MBq | OD Urinary Bladder Wall: 58.00 μSv/MBq | OD Uterus: 12.80 μSv/MBq | ED Contr. Adrenals (scaled to human): 0.09 μSv/MBq | ED Contr. Brain (scaled to human): 0.10 μSv/MBq | ED Contr. Breasts (scaled to human): 0.71 μSv/MBq | ED Contr. Gallbladder Wall (scaled to human): 0.22 μSv/MBq | ED Contr. Heart Wall (scaled to human): 0.08 μSv/MBq | ED Contr. Kidneys (scaled to human): 0.32 μSv/MBq | ED Contr. LLI Wall (scaled to human): 0.84 μSv/MBq | ED Contr. Liver (scaled to human): 1.00 μSv/MBq | ED Contr. Lungs (scaled to human): 1.25 μSv/MBq | ED Contr. Muscle (scaled to human): 0.07 μSv/MBq | ED Contr. Osteogenic Cells (scaled to human): 0.13 μSv/MBq | ED Contr. Ovaries (scaled to human): 0.92 μSv/MBq | ED Contr. Pancreas (scaled to human): 0.09 μSv/MBq | ED Contr. Red Marrow (scaled to human): 1.30 μSv/MBq | ED Contr. Skin (scaled to human): 0.06 μSv/MBq | ED Contr. Small Intestine (scaled to human): 0.20 μSv/MBq | ED Contr. Spleen (scaled to human): 0.22 μSv/MBq | ED Contr. Stomach Wall (scaled to human): 1.26 μSv/MBq | ED Contr. Testes (scaled to human): 0.00 μSv/MBq | ED Contr. Thymus (scaled to human): 0.06 μSv/MBq | ED Contr. Thyroid (scaled to human): 0.30 μSv/MBq | ED Contr. Total Body (scaled to human): 0.00 μSv/MBq | ED Contr. ULI Wall (scaled to human): 1.23 μSv/MBq | ED Contr. Urinary Bladder Wall (scaled to human): 2.32 μSv/MBq | ED Contr. Uterus (scaled to human): 0.11 μSv/MBq | ED ICRP 60 (scaled to human): 14.8 μSv/MBq | ED (scaled to human): 12.9 ± 0.4 μSv/MBq and 12.9 μSv/MBq | ED (scaled to human, listed as (S)-(−)-[^18F]Fluspidine): 12.9 μSv/MBq

[18F]CC[C@H]1OC2(CCN(Cc3ccccc3)CC2)c2ccccc21 [(R)-(+)-[^18F]fluspidine]
OD values of (R)-(+)-enantiomer relative to (S)-(−)-enantiomer (mice, scaled to human): up to 1.3 fold | OD Adrenals: 11.00 μSv/MBq | OD Brain: 13.20 μSv/MBq | OD Breasts: 6.19 μSv/MBq | OD Gallbladder Wall: 30.10 μSv/MBq | OD Heart Wall: 10.50 μSv/MBq | OD Kidneys: 26.90 μSv/MBq | OD LLI Wall: 13.80 μSv/MBq | OD Liver: 26.10 μSv/MBq | OD Lungs: 10.80 μSv/MBq | OD Muscle: 7.86 μSv/MBq | OD Osteogenic Cells: 14.00 μSv/MBq | OD Ovaries: 11.90 μSv/MBq | OD Pancreas: 24.80 μSv/MBq | OD Red Marrow: 12.80 μSv/MBq | OD Skin: 5.82 μSv/MBq | OD Small Intestine: 22.60 μSv/MBq | OD Spleen: 31.80 μSv/MBq | OD Stomach Wall: 12.70 μSv/MBq | OD Testes: 7.63 μSv/MBq | OD Thymus: 7.52 μSv/MBq | OD Thyroid: 10.10 μSv/MBq | OD Total Body: 9.13 μSv/MBq | OD ULI Wall: 25.60 μSv/MBq | OD Urinary Bladder Wall: 55.70 μSv/MBq | OD Uterus: 13.00 μSv/MBq | ED Contr. Adrenals (scaled to human): 0.09 μSv/MBq | ED Contr. Brain (scaled to human): 0.13 μSv/MBq | ED Contr. Breasts (scaled to human): 0.74 μSv/MBq | ED Contr. Gallbladder Wall (scaled to human): 0.26 μSv/MBq | ED Contr. Heart Wall (scaled to human): 0.09 μSv/MBq | ED Contr. Kidneys (scaled to human): 0.23 μSv/MBq | ED Contr. LLI Wall (scaled to human): 0.83 μSv/MBq | ED Contr. Liver (scaled to human): 1.04 μSv/MBq | ED Contr. Lungs (scaled to human): 1.30 μSv/MBq | ED Contr. Muscle (scaled to human): 0.07 μSv/MBq | ED Contr. Osteogenic Cells (scaled to human): 0.14 μSv/MBq | ED Contr. Ovaries (scaled to human): 0.95 μSv/MBq | ED Contr. Pancreas (scaled to human): 0.21 μSv/MBq | ED Contr. Red Marrow (scaled to human): 1.53 μSv/MBq | ED Contr. Skin (scaled to human): 0.06 μSv/MBq | ED Contr. Small Intestine (scaled to human): 0.20 μSv/MBq | ED Contr. Spleen (scaled to human): 0.27 μSv/MBq | ED Contr. Stomach Wall (scaled to human): 1.52 μSv/MBq | ED Contr. Testes (scaled to human): 0.00 μSv/MBq | ED Contr. Thymus (scaled to human): 0.06 μSv/MBq | ED Contr. Thyroid (scaled to human): 0.41 μSv/MBq | ED Contr. Total Body (scaled to human): 0.00 μSv/MBq | ED Contr. ULI Wall (scaled to human): 1.54 μSv/MBq | ED Contr. Urinary Bladder Wall (scaled to human): 2.23 μSv/MBq | ED Contr. Uterus (scaled to human): 0.11 μSv/MBq | ED ICRP 60 (scaled to human): 15.2 μSv/MBq | ED (scaled to human): 14.0 μSv/MBq | ED (scaled to human, listed as (R)-(+)-[^18F]Fluspidine): 14.0 μSv/MBq
